How the values were obtained:
Histamine H3 receptor [1] = biological target: T1, Histamine H3 receptor (Homo sapiens, UniProt Q9Y5N1); assay: Displacement of [125I]Iodoproxyfan from human histamine H3 receptor expressed in HEK293 cells; type: cell-based
Histamine H3 receptor [2] = biological target: T1, Histamine H3 receptor; assay: Displacement of [3H]Methylhistamine from human histamine H3 receptor expressed in HEK293 cells; type: cell-based

T1 sequence (Q9Y5N1 whole entry): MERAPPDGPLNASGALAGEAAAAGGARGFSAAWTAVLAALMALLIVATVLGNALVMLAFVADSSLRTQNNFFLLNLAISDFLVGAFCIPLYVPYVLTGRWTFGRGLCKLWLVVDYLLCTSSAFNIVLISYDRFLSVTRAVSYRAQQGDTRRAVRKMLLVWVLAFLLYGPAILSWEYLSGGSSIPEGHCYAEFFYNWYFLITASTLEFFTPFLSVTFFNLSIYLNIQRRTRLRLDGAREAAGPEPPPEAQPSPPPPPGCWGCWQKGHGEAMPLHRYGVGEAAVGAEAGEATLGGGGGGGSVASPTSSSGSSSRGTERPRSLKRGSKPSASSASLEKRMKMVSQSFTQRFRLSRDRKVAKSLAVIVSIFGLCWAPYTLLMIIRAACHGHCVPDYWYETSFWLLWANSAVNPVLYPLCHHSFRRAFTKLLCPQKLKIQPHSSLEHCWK

SMILES	Ki (Histamine H3 receptor [1]) [nM]	Ki (Histamine H3 receptor [2]) [nM]
CC(=O)c1sc(SCCCN2CCCCC2)nc1C	> 1000	–
c1ccc(-c2cnc(CCCCN3CCCCC3)o2)cc1	63	–
c1cncc(-c2noc(CCCCN3CCCCC3)n2)c1	110	–
c1ccc(-c2nc(SCCCN3CCCCC3)sc2-c2ccccc2)cc1	7.4	–
c1ccc(-c2nc(SCCCN3CCCCC3)oc2-c2ccccc2)cc1	32	–
c1cc(-c2nnc(SCCCN3CCCCC3)o2)ccn1	187	–
c1cc(-c2nc(SCCCN3CCCCC3)nn2CCCN2CCCCC2)ccn1	–	18
C1CCN(CCCOc2nc3c(s2)CN(CCCN2CCCCC2)CC3)CC1	20	–
